The results in this text go back to patent publication US20250009697A1, “COMPOSITION FOR INCREASING AMOUNT OF FOOD INGESTED AND/OR IMPROVING ANOREXIA, AND COMPOSITION FOR ACTIVATING TRANSIENT RECEPTOR POTENTIAL ANKYRIN 1” (HOUSE FOODS GROUP INC., priority 2021, published 2025).

Experiment [1] is described as follows: Anorexia Improving Test 3: cumulative amounts of food ingested of mice, rhein with or without A-967079. It counts as in vivo. The note with it: oral; for Cumulative amounts of food ingested of mice: rhein 100 μmol/kg body weight, A-967079 10 μmol/kg body weight. How it is done: Male ICR mice were housed in individual cages in which ALPHA-dri (Shepherd Specialty Papers) was laid, and were acclimatized and raised for at least one week or more while a powder feed (CE-2, CLEA Japan, Inc.) was given to the mice by using a powder feeder for mice (SN-950, Shinano Manufacturing Co., Ltd.). Then, for several days before the experiment, handling and oral administration training using a feeding needle (FG4202, Fuchigami Kikai Co., Ltd.) were conducted every day. To 9 week-old mice under ad libitum feeding conditions, a carrier solution (containing 2% of dimethyl sulfoxide and 98% of a 0.5% methyl cellulose solution in volume ratio) or a rhein solution (obtained by dissolving 8.53 mg of rhein in 1 mL of the carrier solution) was orally administered from 9:20 a.m. (10 mL/kg body weight). The dosage of rhein was 300 μmol/kg body weight in terms of molar concentration. Then, a feeder the mass of which had been measured in advance was set in the cage at 9:30 a.m. The masses of the feeder and the feed spilled in the cage 0.5, 1, 2, and 3 hours after the start of the feeding experiment were measured, and the ingested mass (g) at each time was measured (n=6). The ingested mass (g) of each mouse was measured in the same manner as in anorexia improving test 2 (the above item 5) except that 10 mL/kg body weight of a carrier solution, a rhein solution (100 μmol/kg body weight), an A-967079 solution (10 μmol/kg body weight), or a mixed solution of A-967079 and rhein (in 10 μmol/kg body weight and 100 μmol/kg body weight, respectively) was orally administered to the mouse. Results obtained by calculating the cumulative amounts of food ingested and conducting a multiple comparison (multiple t-test) by the Dunn-Bonferroni method are shown in Table 12.

For experiment [2], the target named is T1, Human TRPV1 (hTRPV1) (Homo sapiens, UniProt Q8NER1).
T1 construct: expressed in transfected cells
Put plainly: TRPA1 Activation Test 2: intracellular Ca2+ imaging assay 2-2, hTRPV1 stably expressing cell line. The settings on record: for TRPV1 activation rate: Table 9. It counts as cell-based. How it is done: DNAs encoding genes described in the following Table 2 were inserted into pcDNA 5/TO vector (Invitrogen) to prepare various expression vectors.
These expression vectors were transfected into T-REx™_293 cells (Invitrogen) by a conventional method using Lipofectamine LTX (Invitrogen). Then, various transfectants were cultured and cloned by a conventional method using Dulbecco's Modified Eagle Medium (DMEM, Nacalai Tesque Inc.), containing 10% fetal bovine serum (FBS, Cytiva), […] of hygromycin B, and 5 μg/mL of blasticidin S, as a drug selection medium to obtain a hTRPA1 stably expressing cell line, a hTRPV1 stably expressing cell line, and a hTRPM8 stably expressing cell line.
A hTRPA1 stably expressing cell line in which expression of hTRPA1 had been induced in advance by a conventional method was prepared in a 96 well clear bottom plate, and the hTRPA1 activating action of rhein (produced by Tokyo Chemical Industry Co., Ltd.) was tested. Specifically, after each well was washed with PBS, 50 μL of an assay buffer (Hanks' balanced salt solution containing no calcium ion or magnesium ion that contained 1 mM of CaCl2 dihydrate, 20 mM of HEPES, and 0.1% BSA) containing calcium fluorescent indicator Calbryte™ 520 AM (produced by AAT Bioquest) in a final concentration of 4 μM was added, followed by incubating at 33° C. for 45 minutes. After washing with the assay buffer, 100 μL of the assay buffer was added to each well. […] Then, a well in which an assay buffer containing ionomycin (having a final concentration of 10 μM after the addition) instead of the test samples was added was also prepared as a reference for fluorescence intensity.
The measurement was continued from the start of the measurement up to 120 seconds, and the TRPA1 activation ability of the test samples was calculated in accordance with the following formula.
Activation rate (%)=(Fmax[s]−F0)/(Fmax[i]−F0)×100 • Fmax[s]: The maximum value of the fluorescence intensity when the test sample or positive control was added • F0: The average value of the fluorescence intensity for 20 seconds after the start of the measurement (base line) • Fmax[i]: The maximum value of the fluorescence intensity when ionomycin was added
The TRPA1 activation ability of each test sample was measured in the same manner as in the above (2) except the test was conducted with A-967079 (1 μM), which is a TRPA1-specific antagonist, or without A-967079. In addition, intracellular Ca^2+ imaging assay was conducted in the same manner as in the above (2) except that a hTRPV1 stably expressing cell line, a hTRPM8 stably expressing cell line, or a Mock cell was used instead of the hTRPA1 stably expressing cell line. […]

The nature of experiment [3]: Anorexia Improving Test 2: cumulative amounts of food ingested of mice, rhein. It counts as in vivo. How it is done:
Male ICR mice were housed in individual cages in which ALPHA-dri (Shepherd Specialty Papers) was laid, and were acclimatized and raised for at least one week or more while a powder feed (CE-2, CLEA Japan, Inc.) was given to the mice by using a powder feeder for mice (SN-950, Shinano Manufacturing Co., Ltd.). Then, for several days before the experiment, handling and oral administration training using a feeding needle (FG4202, Fuchigami Kikai Co., Ltd.) were conducted every day.
To 9 week-old mice under ad libitum feeding conditions, a carrier solution (containing 2% of dimethyl sulfoxide and 98% of a 0.5% methyl cellulose solution in volume ratio) or a rhein solution (obtained by dissolving 8.53 mg of rhein in 1 mL of the carrier solution) was orally administered from 9:20 a.m. (10 mL/kg body weight). […] Then, a feeder the mass of which had been measured in advance was set in the cage at 9:30 a.m. The masses of the feeder and the feed spilled in the cage 0.5, 1, 2, and 3 hours after the start of the feeding experiment were measured, and the ingested mass (g) at each time was measured (n=6).

T1 sequence (Q8NER1 whole entry): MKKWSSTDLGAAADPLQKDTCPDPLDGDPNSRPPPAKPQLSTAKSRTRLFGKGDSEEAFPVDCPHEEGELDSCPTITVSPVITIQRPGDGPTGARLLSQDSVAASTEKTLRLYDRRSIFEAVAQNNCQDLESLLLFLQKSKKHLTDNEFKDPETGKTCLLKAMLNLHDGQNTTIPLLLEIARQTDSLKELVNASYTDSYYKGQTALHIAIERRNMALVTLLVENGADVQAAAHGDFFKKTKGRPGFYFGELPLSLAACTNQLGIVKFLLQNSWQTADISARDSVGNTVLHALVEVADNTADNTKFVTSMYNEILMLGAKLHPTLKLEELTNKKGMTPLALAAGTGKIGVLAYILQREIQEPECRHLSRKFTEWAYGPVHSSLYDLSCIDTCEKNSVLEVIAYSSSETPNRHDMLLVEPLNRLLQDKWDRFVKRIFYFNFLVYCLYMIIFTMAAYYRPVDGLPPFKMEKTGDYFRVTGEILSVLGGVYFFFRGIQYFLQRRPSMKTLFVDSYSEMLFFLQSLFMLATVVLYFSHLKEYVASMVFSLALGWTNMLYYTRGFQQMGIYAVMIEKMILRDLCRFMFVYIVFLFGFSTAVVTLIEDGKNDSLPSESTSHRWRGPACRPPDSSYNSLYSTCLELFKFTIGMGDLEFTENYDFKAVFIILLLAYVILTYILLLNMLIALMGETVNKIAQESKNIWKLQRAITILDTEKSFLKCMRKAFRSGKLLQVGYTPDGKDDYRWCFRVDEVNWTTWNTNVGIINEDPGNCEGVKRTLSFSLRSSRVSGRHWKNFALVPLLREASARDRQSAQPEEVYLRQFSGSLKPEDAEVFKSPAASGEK

On to `O=C(O)c1cc(O)c2c(c1)C(=O)c1cccc(O)c1C2=O` [Rhein, rhein], for which the “Cumulative amounts of food ingested of mice” value in experiment [1] (0.5 hour after the administration) was 0.21 ± 0.033 g; in experiment [1] (1 hour after the administration), 0.25 ± 0.027 g; in experiment [1] (2 hours after the administration) it was 0.42 ± 0.020 g; in experiment [1] (3 hours after the administration), 0.49 ± 0.035 g. Moreover, the “Significant increase in the cumulative amounts of food ingested where A-967079 was administered (in words)” value in experiment [1] (rhein 100 μmol/kg with A-967079 10 μmol/kg) is “not observed”. For the same compound, the “TRPV1 activation (in words)” value in experiment [2] (hTRPV1 stably expressing cell line) is recorded as “not activated”. Moreover, the results for the TRPV1 activation rate in experiment [2] (test sample 100 μM) and in experiment [2] (test sample 200 μM) were 2.40 ± 0.0395% and 5.49 ± 0.0830%, respectively. Besides, the “Cumulative amounts of food ingested of mice (in words)” value was “significantly increased” in experiment [3] (100 μmol/kg body weight, FIG. 4) and “increased” in experiment [3] (oral, 300 μmol/kg body weight, 0.5 to 3 hours, FIG. 3).
